Data from the NIST ThermoML archive (doi:10.1021/je7001144).
± gives the expanded uncertainty stated by the source.

Details: Liquid, Ebulliometric method (Recirculating still)

Row | Structure (SMILES) | vapor or sublimation pressure (267.67 K) [kPa] | vapor or sublimation pressure (272.54 K) [kPa] | vapor or sublimation pressure (277.45 K) [kPa] | vapor or sublimation pressure (282.62 K) [kPa]
1 | C=COC(F)(F)F [perfluoromethyl vinyl ether] | 222.4 ± 0.9 | 264.7 ± 1.1 | 313.2 ± 1.3 | 367.3 ± 1.5
2 | FC(F)=C(F)Cl [1-chloro-1,2,2-trifluroethene] | 248 ± 1 | 294.4 ± 1.2 | 347.8 ± 1.4 | 408.1 ± 1.6
